Results on 1 compound are retold here after US8946201B2, “Methods for inhibiting TGF-β” (Saint Louis University, priority 2007, dated 2015).

Assay [1] concerns hair growth. Description: Hair growth assay in mice. In kind it is in vivo, mice (C57BL/6). The settings on record: lotion containing 0.025% cholesterol, topical every two days. The protocol:
FIG. 7. Hair growth promotion in mice topically treated with cholesterol. Mice (female, 6 weeks old) were subjected to hair removal by using hair remover lotion Nair®. The areas after hair removal were treated with the lotion containing vehicle only or 0.025% cholesterol on the first day and every other two days. Photographs were taken immediately after hair removal and prior to topical application with vehicle (a,b,c) or lotion containing cholesterol (d,e,f). Photographs were taken at days 0 (a,d), 10 (b,e) and 18 (c,f). The dark color indicates an early stage of hair growth.
Hair at the back of female mice (C57BL/6, 6-8 weeks old, were removed by using Nair® lotion hair remover. Lotions containing 0.025 and 0.00625% cholesterol and vehicle only were topically applied onto the area where the hair was removed. On the first day and every other day, photographs were taken prior to administration of the lotions. On day 18, the re-grown hair was shaved and weighed.
The hair growth cycle is coordinated with complex processes that are dependent on the interactions of epithelial and dermal components (follicle keratinocytes and dermal papilla cells). The hair growth cycle includes two major phases, growing phase (anagen) and regression phase (catagen). The length and size of hair are dependent on the anagen term in the hair cycle. […]

The test system of assay [2] is Smad2 phosphorylation stimulated by TGF-β1. Description: TGF-β1-stimulated Smad2 phosphorylation, Western blot, BAEC. The settings on record: 25 μg/ml, 37° C. 1 hr, then 50 pM TGF-β1 0.5 hr. In kind it is cell-based, bovine. The protocol: Cells were treated with increasing concentrations of cholesterol, as indicated (A, B, C), 50 μg protein/ml LDL (D), 5 μg protein/ml VLDL (D) or 50 μg/ml cholesterol (E) at 37° C. for 1 hr and then further incubated with 50 pM TGF-β1 for 30 min. Phosphorylated Smad2 (P-Smad2) and total Smad2 in the cell lysates were analyzed by 7.5% SDS-PAGE and followed by immunoblot analysis using anti-P-Smad2 and anti-Smad2 antibodies. A representative of a total of 3 analyses is shown (top). The quantitative analysis of the immunoblots is shown (bottom). […] Smad2 nuclear translocation was analyzed by indirect immunofluorescent staining using P-Smad2 antibody and rhodamine-labeled 2nd antibody (E). Rhodamine fluorescence represents P-Smad2 staining (a,b,c) whereas the nuclei were stained by DAPI staining (d,e,f).
Cells grown to near confluence on 12-well cluster dishes were treated with cholesterol or LDL in serum-free DMEM (vol.=0.5 ml/well) at 37° C. for 1 hr. […] Treated cells were lysed and cell lysates were analyzed by 7.5% SDS-PAGE and Western blot analysis using anti-Smad2, anti-P-Smad2, anti-caveolin-1, anti-TβR-I (alk5) or anti-TβR-II antibodies as described previously (30). […]
It has been reported that TGF-β responsiveness is determined by TGF-β partitioning between lipid raft/caveolae-mediated and clathrin-mediated endocytosis. […]
(In general: A western blot detects proteins with antibodies after separation by electrophoresis.)

`CC(C)CCC[C@@H](C)[C@H]1CC[C@H]2[C@@H]3CC=C4C[C@@H](O)CC[C@]4(C)[C@H]3CC[C@]12C` [cholesterol]: the hair growth entry in assay [1] (day 10) was “the hair started to grow”; in assay [1] (day 18) it was “fully grown hair”. Besides, in assay [2], the “suppression of Smad2 phosphorylation stimulated by TGF-β1” value is reported as 90%.
